From patent publication US20170355691A1, “PESTICIDALLY ACTIVE HETEROCYCLIC DERIVATIVES WITH SULPHUR CONTAINING SUBSTITUENTS” (Syngenta Participations AG, priority 2015, published 2017) come the findings set out here.

Each structure is given as a SMILES string. A value given as a limit tells only on which side of the number the result lay.

Data set [1] relates to Diabrotica balteata (corn root worm). In words: Activity against Diabrotica balteata, maize sprouts (Example B3). Type of data set: in vivo. Conditions: 96 h, L2 larvae on maize sprouts, 4 days after infestation, read-out: effect in at least one of the two categories (mortality or growth inhibition). Here is the method:
Example B3: Activity Against Diabrotica balteata (Corn Root Worm)
Maize sprouts, placed on an agar layer in 24-well microtiter plates were treated with aqueous test solutions prepared from 10′000 ppm DMSO stock solutions by spraying. After drying, the plates were infested with L2 larvae (6 to 10 per well). The samples were assessed for mortality and growth inhibition in comparison to untreated samples 4 days after infestation. The following compounds gave an effect of at least 80% in at least one of the two categories (mortality or growth inhibition) at an application rate of 200 ppm: P1.1, P1.2, P1.6, P1.7, P1.8, P1.9, P1.10, P1.13, P1.14, P1.15, P1.16, P1.17 and P1.18.

Data set [2] relates to Spodoptera littoralis (Egyptian cotton leaf worm). In words: Activity against Spodoptera littoralis, cotton leaf disc spray (Example B1). Format: in vivo. Conditions: foliar, 72 h, L1 larvae on cotton leaf discs, 3 days after infestation, read-out: control in at least one of the three categories (mortality, anti-feedancy or growth inhibition). Here is the method: Example B1: Activity Against Spodoptera littoralis (Egyptian Cotton Leaf Worm)
Cotton leaf discs were placed on agar in 24-well microtiter plates and sprayed with aqueous test solutions prepared from 10′000 ppm DMSO stock solutions. After drying the leaf discs were infested with five L1 larvae. The samples were assessed for mortality, anti-feedant effect, and growth inhibition in comparison to untreated samples 3 days after infestation. Control of Spodoptera littoralis by a test sample is when at least one of mortality, anti-feedant effect, and growth inhibition is higher than the untreated sample. The following compounds gave an effect of at least 80% control in at least one of the three categories (mortality, anti-feedancy or growth inhibition) at an application rate of 200 ppm: P1.2, P1.3, P1.6, P1.7, P1.8, P1.9, P1.10, P1.12, P1.13, P1.14, P1.15, P1.16, P1.17 and P1.18.

Data set [3] deals with Plutella xylostella (diamond back moth). The data set is described as follows: Activity against Plutella xylostella, artificial diet (Example B2). Format: in vivo. Conditions: 120 h, L2 larvae on artificial diet, 5 days after infestation, read-out: effect in at least one of the two categories (mortality or growth inhibition). Here is the method: Example B2: Activity Against Plutella xylostella (Diamond Back Moth)
24-well microtiter plates with artificial diet were treated with aqueous test solutions prepared from 10′000 ppm DMSO stock solutions by pipetting. After drying, the plates were infested with L2 larvae (10 to 15 per well). The samples were assessed for mortality and growth inhibition in comparison to untreated samples 5 days after infestation. The following compounds gave an effect of at least 80% in at least one of the two categories (mortality or growth inhibition) at an application rate of 200 ppm: P1.3, P1.6, P1.7, P1.8, P1.9, P1.13, P1.14, P1.15, P1.16, P1.17 and P1.18.

The subject of data set [4] is Myzus persicae (green peach aphid). In words: Activity against Myzus persicae, sunflower leaf disc spray (Example B5). Type of data set: in vivo. Conditions: foliar, 144 h, mixed-age aphid population on sunflower leaf discs, 6 days after infestation. On the procedure: Example B5: Activity Against Myzus persicae (Green Peach Aphid)
Sunflower leaf discs were placed on agar in a 24-well microtiter plate and sprayed with aqueous test solutions prepared from 10′000 ppm DMSO stock solutions. After drying, the leaf discs were infested with an aphid population of mixed ages. The samples were assessed for mortality 6 days after infestation.

In data set [5] the test system is Spodoptera littoralis (Egyptian cotton leaf worm). The data set is described as follows: Activity against Spodoptera littoralis, systemic via lettuce roots in agar (Example B4). Type of data set: in vivo. Conditions: 144 h, 12.5 ppm in agar, uptake by lettuce roots, eggs, 6 days after infestation, read-out: control in at least one of the three categories (mortality, anti-feedancy or growth inhibition). From the text:
Example B4: Activity Against Spodoptera littoralis (Egyptian Cotton Leaf Worm)
Test compounds were applied by pipette from 10′000 ppm DMSO stock solutions into 24-well plates and mixed with agar. Lettuce seeds were placed on the agar and the multi well plate was closed by another plate which contains also agar. After 7 days the roots have absorbed the compound and the lettuce has grown into the lid plate. The lettuce leafs were now cut off into the lid plate. Spodoptera eggs were pipetted through a plastic stencil on a humid gel blotting paper and the plate closed with it. The samples were assessed for mortality, anti-feedant effect and growth inhibition in comparison to untreated samples 6 days after infestation. The following compound gave an effect of at least 80% control in at least one of the three categories (mortality, anti-feedancy or growth inhibition) at an application rate of 12.5 ppm: P1.17 and P1.18.

Data set [6] has as its system Euschistus heros (neotropical brown stink bug). The data set is described as follows: Activity against Euschistus heros, soybean leaf spray (Example B7). Conditions: 120 h, N-2 nymphs on soybean leaf, 5 days after infestation. Format: in vivo. On the procedure:
Example B7: Activity Against Euschistus heros (Neotropical Brown Stink Bug)
Soybean leaf on agar in 24-well microtiter plates were sprayed with aqueous test solutions prepared from 10′000 ppm DMSO stock solutions. After drying the leaf were infested with N-2 nymphs. The samples were assessed for mortality 5 days after infestation.

The subject of data set [7] is Bemisia tabaci (cotton white fly). The data set is described as follows: Activity against Bemisia tabaci, cotton leaf disc spray (Example B6). Conditions: foliar, 144 h, adult white flies on cotton leaf discs, 6 days after incubation. Format: in vivo. On the procedure: Example B6: Activity Against Bemisia tabaci (Cotton White Fly)
Cotton leaf discs were placed on agar in 24-well microtiter plates and sprayed with aqueous test solutions prepared from 10′000 ppm DMSO stock solutions. After drying the leaf discs were infested with adult white flies. The samples were checked for mortality 6 days after incubation.

The subject of data set [8] is Thrips tabaci (onion thrips). The data set is described as follows: Activity against Thrips tabaci, sunflower leaf disc spray (Example B9). Type of data set: in vivo. Conditions: foliar, 144 h, mixed-age thrips population on sunflower leaf discs, 6 days after infestation. On the procedure:
Example B9: Activity Against Thrips tabaci (Onion Thrips)
Sunflower leaf discs were placed on agar in 24-well microtiter plates and sprayed with aqueous test solutions prepared from 10′000 ppm DMSO stock solutions. After drying the leaf discs were infested with a thrips population of mixed ages. The samples were assessed for mortality 6 days after infestation.

In data set [9] the test system is Tetranychus urticae (two-spotted spider mite). The data set is described as follows: whole plant or invertebrate. Type of data set: in vivo. Conditions: foliar, 192 h. On the procedure: Example B8: Activity Against Tetranychus urticae (Two-Spotted Spider Mite)
Bean leaf discs on agar in 24-well microtiter plates were sprayed with aqueous test solutions prepared from 10′000 ppm DMSO stock solutions. After drying the leaf discs were infested with a mite population of mixed ages. The samples were assessed for mortality on mixed population (mobile stages) 8 days after infestation.

One may read the melting point as the temperature, or range, at which the solid turns liquid. As a reminder, the mortality is the percentage killed.

For `CCS(=O)(=O)c1cc(C(F)(F)F)cnc1-n1ncc(-c2ccc(C(F)(F)F)cc2)c1C` [Compound P1.5], the melting point was in the range of 152 to 154 °C.
For `CCS(=O)(=O)c1cc(C(F)(F)F)cnc1-n1cc(-c2ccc(C(F)(F)F)nc2)cn1` [Compound P1.7], the percent effect (mortality or growth inhibition) at 200 ppm in data set [1] and in data set [3] was at least 80% each time. For the same molecule, the percent control (mortality, anti-feedant effect or growth inhibition) at 200 ppm in [2] is at least 80%.
`CCS(=O)(=O)c1cc(C(F)(F)F)cnc1-n1cc(-c2ccc(SC(F)(F)F)cc2)cn1` [Compound P1.11]: the melting point was 181 to 182 °C.
Consider `CCS(=O)(=O)c1cc(C(F)(F)F)ccc1-n1cc(-c2cccc(C(F)(F)F)c2)cn1` [Compound P1.9], for which the percent effect (mortality or growth inhibition) at 200 ppm in data set [1] and in data set [3] was at least 80% each time. Further, in data set [2], the percent control (mortality, anti-feedant effect or growth inhibition) at 200 ppm was at least 80%.
On to `CCS(=O)(=O)c1cc(C(F)(F)F)cnc1-n1ncc(-c2cccc(C(F)(F)F)c2)c1C` [Compound P1.2, 3-ethylsulfonyl-2-[5-methyl-4-[3-(trifluoromethyl)phenyl]pyrazol-1-yl]-5-(trifluoromethyl)pyridine], for which the percent effect (mortality or growth inhibition) at 200 ppm in data set [1] is at least 80%. For the same molecule, in data set [2], the percent control (mortality, anti-feedant effect or growth inhibition) at 200 ppm was at least 80%.
Regarding `CCSc1cccnc1-n1cc(-c2ccc(C(F)(F)F)nc2)cn1` [Compound P1.19, 3-ethylsulfanyl-2-[4-[6-(trifluoromethyl)-3-pyridyl]pyrazol-1-yl]pyridine], the melting point was in the range of 121 to 123 °C.
For the molecule `CCS(=O)(=O)c1cc(C(F)(F)F)cnc1-n1cc(-c2cncc(C(F)(F)F)c2)cn1` [Compound P1.18], the percent effect (mortality or growth inhibition) at 200 ppm in data set [1] and in data set [3] was at least 80% each time. For the same molecule, the mortality at 200 ppm in data set [4] was at least 80%. Also, in [2], the percent control (mortality, anti-feedant effect or growth inhibition) at 200 ppm is at least 80%. Besides, the percent control (mortality, anti-feedant effect or growth inhibition) at 12.5 ppm in data set [5] was at least 80%.
Regarding `CCSc1cc(C(F)(F)F)cnc1-n1ncc(-c2ccc(C(F)(F)F)cc2)c1C` [Compound P1.4], the melting point fell in the range of 113 to 114 °C.
With `CCS(=O)(=O)c1cc(C(F)(F)F)cnc1-n1cc(-c2cc(C(F)(F)F)ccn2)cn1` [Compound P1.8], the percent effect (mortality or growth inhibition) at 200 ppm in [1] and in [3] was at least 80% throughout. Besides, in data set [2], the percent control (mortality, anti-feedant effect or growth inhibition) at 200 ppm is at least 80%.
For the molecule `CCS(=O)(=O)c1cc(C(F)(F)F)ccc1-n1cc(-c2ccc(C(F)(F)F)cc2)cn1` [Compound P1.13], the percent effect (mortality or growth inhibition) at 200 ppm in data set [1] and in [3] was at least 80% throughout. Further, the mortality at 200 ppm in [6] was at least 80%. In [2], the percent control (mortality, anti-feedant effect or growth inhibition) at 200 ppm was at least 80%.
On to `CCS(=O)(=O)c1cc(C(F)(F)F)ccc1-n1ncc(-c2cccc(C(F)(F)F)c2)c1C` [Compound P1.16], for which the mortality at 200 ppm in data set [7], in data set [4] and in data set [6] was at least 80% in each case. Also, the percent effect (mortality or growth inhibition) at 200 ppm in [1] and in data set [3] was at least 80% each time. In addition, in data set [2], the percent control (mortality, anti-feedant effect or growth inhibition) at 200 ppm was at least 80%.
For `CCS(=O)(=O)c1cc(C(F)(F)F)ccc1-n1cc(-c2cc(C(F)(F)F)ccn2)cn1` [Compound P1.10, 2-[1-[2-ethylsulfonyl-4-(trifluoromethyl)phenyl]pyrazol-4-yl]-4-(trifluoromethyl)pyridine], the percent effect (mortality or growth inhibition) at 200 ppm in data set [1] is at least 80%. This molecule also registered a mortality at 200 ppm in [4] of at least 80%. Besides, the percent control (mortality, anti-feedant effect or growth inhibition) at 200 ppm in [2] is at least 80%.
Take `CCS(=O)(=O)c1cc(C(F)(F)F)ccc1-n1ncc(-c2ccc(C(F)(F)F)cc2)c1C` [Compound P1.15, 1-[2-ethylsulfonyl-4-(trifluoromethyl)phenyl]-5-methyl-4-[4-(trifluoromethyl)phenyl]pyrazole]: the mortality at 200 ppm in data set [7], in [4] and in [8] was at least 80% each time. Also, the percent effect (mortality or growth inhibition) at 200 ppm in [1] and in data set [3] was at least 80% each time. In addition, in [2], the percent control (mortality, anti-feedant effect or growth inhibition) at 200 ppm was at least 80%.
On to `CCSc1cc(C(F)(F)F)cnc1-n1ncc(-c2cccc(C(F)(F)F)c2)c1C` [Compound P1.1, 3-ethylsulfanyl-2-[5-methyl-4-[3-(trifluoromethyl)phenyl]pyrazol-1-yl]-5-(trifluoromethyl)pyridine], for which the percent effect (mortality or growth inhibition) at 200 ppm in data set [1] is at least 80%. In data set [9], the mortality at 200 ppm is at least 80%.
On to `CCS(=O)(=O)c1cc(C(F)(F)F)cnc1-n1cc(-c2ccc(C(F)(F)F)cc2)cn1` [Compound P1.3, 3-ethylsulfonyl-5-(trifluoromethyl)-2-[4-[4-(trifluoromethyl)phenyl]pyrazol-1-yl]pyridine], for which the percent control (mortality, anti-feedant effect or growth inhibition) at 200 ppm in data set [2] is at least 80%. Further, the percent effect (mortality or growth inhibition) at 200 ppm in data set [3] was at least 80%.
On to `CCS(=O)(=O)c1cc(C(F)(F)F)ccc1-n1cc(-c2cncc(C(F)(F)F)c2)cn1` [Compound P1.17], for which the mortality at 200 ppm in data set [7], in data set [4] and in data set [6] was at least 80% in each case. Besides, the percent effect (mortality or growth inhibition) at 200 ppm in data set [1] and in data set [3] was at least 80% each time. Moreover, the percent control (mortality, anti-feedant effect or growth inhibition) at 200 ppm in data set [2] was at least 80%. For the same molecule, the percent control (mortality, anti-feedant effect or growth inhibition) at 12.5 ppm in data set [5] was at least 80%.
In the case of `CCS(=O)(=O)c1cc(C(F)(F)F)cnc1-n1cc(-c2cccc(C(F)(F)F)c2)cn1` [Compound P1.6], the percent effect (mortality or growth inhibition) at 200 ppm in data set [1] and in data set [3] was at least 80% each time. In [2], the percent control (mortality, anti-feedant effect or growth inhibition) at 200 ppm was at least 80%.
For the molecule `CCS(=O)(=O)c1cc(C(F)(F)F)cnc1-n1cc(-c2cccc(SC(F)(F)F)c2)cn1` [Compound P1.12], in data set [2], the percent control (mortality, anti-feedant effect or growth inhibition) at 200 ppm is at least 80%.
